Laboratory results taken from PubChem BioAssay AID2060611 (Molecular Pharmacology Branch, DTP, NCI, 2025).
“And” between values parts separate entries of the source, which are not always exact repeats. Equal values may be shown once.

System: 628569-122-R-J1-PDC complex spheroid viability
Experiment: Anticancer human tumor 628569-122-R-J1-PDC patient-derived head and neck squamous carcinoma cell line growth inhibition [CLK]
Details: for viability, T/C: stronger effect = lower value; active = viability on the fitted dose curve at most 10% of control; inactive = the rest
Method in brief: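 Multi-cell-type spheroids combined patient-derived tumor cells with HUVEC endothelial cells and human mesenchymal stem cells. Paired agents were dosed in half-log steps down from about clinical Cmax, or from 10 microM where Cmax was unknown.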

[1] = curve of first compound, second compound 0.0316 µM
[2] = curve of first compound, second compound 0.1 µM
[3] = curve of first compound, second compound 0.316 µM
[4] = curve of first compound, second compound 1 µM
[5] = curve of first compound, second compound 3.16 µM
[6] = curve of first compound, second compound 10 µM
[7] = second compound 0.0316 µM, first compound 0.0316 µM
[8] = second compound 0.0316 µM, first compound 0.1 µM
[9] = second compound 0.0316 µM, first compound 0.316 µM
[10] = second compound 0.0316 µM, first compound 1 µM
[11] = second compound 0.0316 µM, first compound 3.16 µM
[12] = second compound 0.0316 µM, first compound 10 µM
[13] = second compound 0.1 µM, first compound 0.0316 µM
[14] = second compound 0.1 µM, first compound 0.1 µM
[15] = second compound 0.1 µM, first compound 0.316 µM
[16] = second compound 0.1 µM, first compound 1 µM
[17] = second compound 0.1 µM, first compound 3.16 µM
[18] = second compound 0.1 µM, first compound 10 µM
[19] = second compound 0.316 µM, first compound 0.0316 µM
[20] = second compound 0.316 µM, first compound 0.1 µM
[21] = second compound 0.316 µM, first compound 0.316 µM
[22] = second compound 0.316 µM, first compound 1 µM
[23] = second compound 0.316 µM, first compound 3.16 µM
[24] = second compound 0.316 µM, first compound 10 µM
[25] = second compound 1 µM, first compound 0.0316 µM
[26] = second compound 1 µM, first compound 0.1 µM
[27] = second compound 1 µM, first compound 0.316 µM
[28] = second compound 1 µM, first compound 1 µM
[29] = second compound 1 µM, first compound 3.16 µM
[30] = second compound 1 µM, first compound 10 µM
[31] = second compound 3.16 µM, first compound 0.0316 µM
[32] = second compound 3.16 µM, first compound 0.1 µM
[33] = second compound 3.16 µM, first compound 0.316 µM
[34] = second compound 3.16 µM, first compound 1 µM
[35] = second compound 3.16 µM, first compound 3.16 µM
[36] = second compound 3.16 µM, first compound 10 µM
[37] = second compound 10 µM, first compound 0.0316 µM
[38] = second compound 10 µM, first compound 0.1 µM
[39] = second compound 10 µM, first compound 0.316 µM
[40] = second compound 10 µM, first compound 1 µM
[41] = second compound 10 µM, first compound 3.16 µM
[42] = second compound 10 µM, first compound 10 µM
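Note: spheroids exposed to agents for seven days before readout.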
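Throughout, for viability, T/C: 100% = DMSO vehicle control viability.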

CC(=O)O[C@H]1C(=O)[C@@]2(C)[C@H]([C@H](OC(=O)c3ccccc3)[C@]3(O)C[C@H](OC(=O)[C@H](O)[C@@H](NC(=O)c4ccccc4)c4ccccc4)C(C)=C1C3(C)C)[C@]1(OC(C)=O)CO[C@@H]1C[C@@H]2O + CN1CCN(c2cc(C(=O)Nc3cc4cc(-c5cnn(C)c5)ccc4cn3)ccn2)CC1
active: viability, T/C [25] 4.9% | viability, T/C [26] 5.86% | viability, T/C [27] 4.18% | viability, T/C [28] 3.31% | viability, T/C [29] 3.36% | viability, T/C [30] 4.26% | viability, T/C [31] 5.69% | viability, T/C [32] 4.99% | viability, T/C [33] 6.92% | viability, T/C [34] 3.95% | viability, T/C [35] 5.22% | viability, T/C [36] 3.46% | viability, T/C [37] 1.88% | viability, T/C [38] 4.8% | viability, T/C [39] 3.63% | viability, T/C [40] 4.24% | viability, T/C [41] 3.42% | viability, T/C [42] 1.77%
< 31.6 nM: IC50 [1] | IC50 [2] | IC50 [3] | IC50 [4] | IC50 [5] | IC50 [6]
inactive: viability, T/C [7] 39.9% | viability, T/C [8] 34.4% | viability, T/C [9] 38% | viability, T/C [10] 41% | viability, T/C [11] 41.6% | viability, T/C [12] 54% | viability, T/C [13] 37.5% | viability, T/C [14] 33.4% | viability, T/C [15] 39.5% | viability, T/C [16] 42.7% | viability, T/C [17] 47.2% | viability, T/C [18] 67.3% | viability, T/C [19] 33.2% | viability, T/C [20] 41.9% | viability, T/C [21] 41.7% | viability, T/C [22] 41% | viability, T/C [23] 33.7% | viability, T/C [24] 49.4%

C#Cc1c(F)ccc2cc(O)cc(-c3ncc4c(N5CC6CCC(C5)N6)nc(OCC56CCCN5CC(F)C6)nc4c3F)c12 (stereo not given) + CNC(=O)c1ccc(Nc2nc(OC3CCCC3)c3c(-c4ccc5nc(C)oc5c4)c[nH]c3n2)c(OC)c1
1350 nM: IC50 [3]
> 10000 nM: IC50 [1] | IC50 [2]
< 31.6 nM: IC50 [4] | IC50 [5] | IC50 [6]
inactive: viability, T/C [7] 103% | viability, T/C [8] 94.2% | viability, T/C [9] 84.8% | viability, T/C [10] 100% | viability, T/C [11] 98.7% | viability, T/C [12] 98.8% | viability, T/C [13] 71.2% | viability, T/C [14] 63.2% | viability, T/C [15] 51.5% | viability, T/C [16] 53.5% | viability, T/C [17] 61.7% | viability, T/C [18] 59.3% | viability, T/C [19] 55.8% | viability, T/C [20] 52.9% | viability, T/C [21] 50.2% | viability, T/C [22] 53.4% | viability, T/C [23] 47.5% | viability, T/C [24] 44.1% | viability, T/C [25] 46% | viability, T/C [26] 45.6% | viability, T/C [27] 47.4% | viability, T/C [28] 50.9% | viability, T/C [29] 44.9% | viability, T/C [30] 52.3% | viability, T/C [31] 51.6% | viability, T/C [32] 43.1% | viability, T/C [33] 47.5% | viability, T/C [34] 39.2% | viability, T/C [35] 40.3% | viability, T/C [36] 28.5% | viability, T/C [37] 49.4% | viability, T/C [38] 42.4% | viability, T/C [39] 41.9% | viability, T/C [40] 41.4% | viability, T/C [41] 47.5% | viability, T/C [42] 29.7%

COc1ccc([C@@H](O)c2cc(-c3ncnc4cc(N5CCOCC5)ccc34)c(F)cc2Cl)nn1
1350 nM and 1610 nM: IC50 (curve of compound)
inactive: viability, T/C (compound 0.0316 µM) 79.4% and 79.8% | viability, T/C (compound 0.1 µM) 92.1% and 72.9% | viability, T/C (compound 0.316 µM) 69.5% and 75.5% | viability, T/C (compound 1 µM) 51% and 57.1% | viability, T/C (compound 3.16 µM) 41.2% and 39.4% | viability, T/C (compound 10 µM) 21.8% and 31.3%

COc1c(OCCCN2CCOCC2)ccc2c3n(c(=NC(=O)c4cnc(N)nc4)nc12)CCN3
inactive: viability, T/C (compound 0.00316 µM) 79.2% and 77.8% | viability, T/C (compound 0.01 µM) 61.3% and 39.7% | viability, T/C (compound 0.0316 µM) 33.9% and 37.7% | viability, T/C (compound 0.1 µM) 21.9% and 23.6% | viability, T/C (compound 0.316 µM) 15.5% and 12.8%
16 nM and 9.1 nM: IC50 (curve of compound)
4.99% and 10.7%: viability, T/C (compound 1 µM)

COc1ccc([C@@H](O)c2cc(-c3ncnc4cc(N5CCOCC5)ccc34)c(F)cc2Cl)nn1 + CN1CCN(c2cc(C(=O)Nc3cc4cc(-c5cnn(C)c5)ccc4cn3)ccn2)CC1
314 nM: IC50 [2]
< 31.6 nM: IC50 [3] | IC50 [4] | IC50 [5] | IC50 [6]
active: viability, T/C [24] 7.64% | viability, T/C [25] 5.08% | viability, T/C [26] 4.84% | viability, T/C [27] 10.1% | viability, T/C [28] 7.13% | viability, T/C [29] 6.18% | viability, T/C [30] 5.7% | viability, T/C [31] 7.69% | viability, T/C [32] 7.5% | viability, T/C [33] 9.02% | viability, T/C [34] 9.74% | viability, T/C [35] 6.25% | viability, T/C [36] 6.05% | viability, T/C [37] 2.13% | viability, T/C [38] 3.81% | viability, T/C [39] 3.72% | viability, T/C [40] 1.54% | viability, T/C [41] 2.76% | viability, T/C [42] 1%
inactive: viability, T/C [7] 95.9% | viability, T/C [8] 88.2% | viability, T/C [9] 68.8% | viability, T/C [10] 71.6% | viability, T/C [11] 37.3% | viability, T/C [12] 27.3% | viability, T/C [13] 86.9% | viability, T/C [14] 61.7% | viability, T/C [15] 48.8% | viability, T/C [16] 42.6% | viability, T/C [17] 34.5% | viability, T/C [18] 22.8% | viability, T/C [19] 27.4% | viability, T/C [20] 22.6% | viability, T/C [21] 21.3% | viability, T/C [22] 15.6% | viability, T/C [23] 13.4%
2100 nM: IC50 [1]
